Results as given in ChEMBL document CHEMBL1128302, “Synthesis, absolute configuration, and enantioselectivity of antiretroviral effect of (R)-(-)- and (S)-(+)-cytallene. Lipase-catalyzed enantioselective acylations of (+/-)-N4-acylcytallenes” (J Med Chem, 1995).

Assay: Inhibitory activity against HIV-1 replication in phytohemagglutininin-activated peripheral blood mononuclear (PHA-PBM) cells
Type: functional, Homo sapiens

IC50 [nM] | IC90 (Homo sapiens) [nM] | IC90 [nM] | Compound
> 10000 | – | – | Nc1ccn(C=C=CCO)c(=O)n1 (stereo in doubt; 3c)
400 | 1700 | – | Nc1ccn(C=C=CCO)c(=O)n1 (stereo in doubt; 2b)
800 | – | 3400 | Nc1ccn(C=C=CCO)c(=O)n1 (stereo in doubt; 1b)
